The values below come from patent publication US8258138B2, “Potassium channel blockers” (Xention Limited, priority 2008, dated 2012).

One experiment concerns the target hKv1.5 (Homo sapiens, UniProt P22460). The experiment can be described thus: Kv1.5 Autopatch electrophysiology (whole cell patch-clamp). The class given is cell-based. Conditions: compound at 1 μM; room temperature (22-24° C.); total charge during step to 0 mV; read-out: hKv1.5 % inh. The method, then:
Kv1.5 Autopatch Electrophysiology Method
The external bathing solution contained (in mM): 150 NaCl, 10 KCl, […], 3 MgCl2, 1 CaCl2, 10 HEPES, pH 7.4. Patch pipettes were filled with an electrode solution of composition (in mM): 160 KCl, 0.5 MgCl2, 10 HEPES, 1 EGTA, pH 7.4 with KOH.
Compounds were dissolved in DMSO (100%) and made up in the external bather at a concentration of 1 μM. All experiments were conducted at room temperature (22-24° C.).
A cell suspension (10 ml), with a density of 100,000 cells/ml, was aliquoted into a 15 ml centrifuge tube and transferred to an incubator (37° C., 5% CO2) for approximately one hour before use. Following 60 min incubation, a tube was taken and centrifuged at 1000 rpm for 4 mins at room temperature. 9.5 ml supernatant was thence discarded, leaving a cell pellet at the bottom of the tube. The pellet was then resuspended using 100 μl of cold (4° C.), filtered (0.22 μm), 0.2% BSA/bather solution (0.02 g BSA/10 ml bather). The bottom of the tube was manually agitated gently until the solution became cloudy with cells. The 100 μl cell resuspension solution was then stored on the bench at 4° C. (using a Peltier-based temperature control device) until used.
A length of capillary glass (1B150F-4, WPI) was dipped into the cell suspension solution, such that ˜3 cm column of fluid was taken up by capillary action. A Ag/AgCl wire was dropped into the non-dipped end of the capillary also. The outside of the solution-filled end of the capillary was then dried and the capillary was loaded into the AutoPatch™.
Borosilicate glass patch pipettes (from 1.5 mm OD, thin-walled filamented, GC150-TF capillary glass, Harvard) were pulled using a DMZ pipette puller (Zeitz Instruments), and were back-filled using the internal pipette solution, being careful that no bubbles remain at the tip or in the body of the pipette. Patch pipettes typically had resistances of 2.3-3.5 MΩ. Once filled, the pipette tip and a proportion of the shaft (˜15 mm) were dipped into Sigmacote (Sigma). The recording pipette was then loaded into the AutoPatch™ Automated patch-clamping was initiated by the operator, but thereafter AutoPatch.exe continued the experiment providing that pre-set conditions and criteria were satisfied.
Whole cell patch-clamp recordings were made using the AutoPatch™ rig, which incorporated an EPC9 amplifier (HEKA, Germany) under control of Pulse software (v8.54, HEKA, Germany), a motion controller with 2 translators (Newport, UK), valve controller (VF1) and a c-level suction device all at room temperature (22-24° C.). This equipment was completely under the control of AutoPatch.exe and operator intervention was only made when there was a requirement to refill the drug reservoirs or to prevent the loss of a cell due to a technical error. Cells with an Rseries greater than 18 MΩ were discounted from the experiment.
Qualification stages prior to perfusion and drug application ensured that the observed current met the criteria for the experiment. Only those cells with an IK>500 pA were used for experiments. Cells were continuously perfused with external solution at a flow rate of 1.8-2 ml/minute. […] Online analysis of the hKv1.5 current during the application of compounds was performed by the AutoPatch™ software. Voltage-step protocols and analysis of data was performed as described for conventional electrophysiology.
Electrophysiology voltage-step protocols and analysis of data was performed as follows. Data was sampled at 5 kHz, and filtered with a −3 dB bandwidth of 2.5 kHz. Cells were held at a voltage of −80 mV. Currents were evoked to a voltage step for 1000 ms in duration at 0 mV every 5 s. Currents were analysed using Pulsefit software (v8.54, HEKA, Germany), with the total charge measured during the whole of the voltage step. All other plots were produced using Igor Pro (WaveMetrics).

The target in another experiment is T1, human Kv1.3 (Homo sapiens, UniProt P22001).
T1 construct: expressed in transfected cells; host or cells: stably transfected cells grown in medium for CHO cells
T1 sequence (P22001 whole entry): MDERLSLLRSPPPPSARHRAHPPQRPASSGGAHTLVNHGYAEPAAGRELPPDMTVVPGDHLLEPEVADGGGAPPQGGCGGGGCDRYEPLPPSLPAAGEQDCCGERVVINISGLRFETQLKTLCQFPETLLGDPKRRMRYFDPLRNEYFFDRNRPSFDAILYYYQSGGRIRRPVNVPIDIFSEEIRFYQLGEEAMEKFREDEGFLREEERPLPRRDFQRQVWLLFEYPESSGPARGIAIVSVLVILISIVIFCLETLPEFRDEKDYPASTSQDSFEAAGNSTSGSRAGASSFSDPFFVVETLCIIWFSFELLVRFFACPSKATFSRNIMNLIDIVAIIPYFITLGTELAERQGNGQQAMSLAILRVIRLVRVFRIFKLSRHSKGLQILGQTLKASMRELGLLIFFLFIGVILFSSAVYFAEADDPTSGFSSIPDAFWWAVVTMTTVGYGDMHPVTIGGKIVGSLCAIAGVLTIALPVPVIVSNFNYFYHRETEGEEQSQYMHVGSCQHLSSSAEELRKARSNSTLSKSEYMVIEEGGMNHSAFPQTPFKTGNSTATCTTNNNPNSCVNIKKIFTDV
The experiment can be described thus: Kv1.3 Autopatch electrophysiology (whole cell patch-clamp, inhibition of charge movement). The class given is cell-based. Conditions: compound at 1 μM; cells stably transfected with human Kv1.3; room temperature; total charge during step to +30 mV relative to control; read-out: hKv1.3 % inh. The method in brief:
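Whole-cell AutoPatch recordings were made at room temperature from cells held at −80 mV, with 500 ms steps to +30 mV every 15 s. The bath contained 10 mM KCl, pH 7.4, and the pipette K-gluconate/EGTA, pH 7.2.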

Sequence of hKv1.5 (P22460 whole entry): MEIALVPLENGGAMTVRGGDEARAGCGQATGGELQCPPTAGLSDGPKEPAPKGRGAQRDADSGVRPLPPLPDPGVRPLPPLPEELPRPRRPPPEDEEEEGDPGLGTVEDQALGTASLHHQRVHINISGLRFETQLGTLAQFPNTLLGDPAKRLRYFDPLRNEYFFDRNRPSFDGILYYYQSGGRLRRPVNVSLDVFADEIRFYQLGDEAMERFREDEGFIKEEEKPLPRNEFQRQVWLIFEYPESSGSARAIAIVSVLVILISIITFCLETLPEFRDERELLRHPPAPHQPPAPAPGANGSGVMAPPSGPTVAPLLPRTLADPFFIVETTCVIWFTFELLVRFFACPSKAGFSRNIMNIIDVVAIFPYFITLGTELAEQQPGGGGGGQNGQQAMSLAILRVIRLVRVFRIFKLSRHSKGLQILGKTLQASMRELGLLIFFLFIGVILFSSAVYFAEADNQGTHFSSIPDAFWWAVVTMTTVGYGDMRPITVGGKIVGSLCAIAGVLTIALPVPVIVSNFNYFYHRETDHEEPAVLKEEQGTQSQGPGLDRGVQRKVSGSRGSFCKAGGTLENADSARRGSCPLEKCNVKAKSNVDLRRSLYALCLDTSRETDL

Consider `Cc1cc(N(Cc2ccccc2)S(=O)(=O)c2ccccc2)ccc1C(=O)N1CCN(c2ccccc2)CC1` [Example 52, N-Benzyl-N-[3-methyl-4-(4-phenyl-piperazine-1-carbonyl)-phenyl]-benzenesulfonamide], for which the inhibition at 1 µM came to 93.6% on hKv1.5 and 67% at human Kv1.3.

Take `O=C(c1ccc(N(Cc2ccccc2)S(=O)(=O)c2ccccc2)c(F)c1)N1CCN(c2ccccc2)CC1` [Example 53, N-Benzyl-N-[2-fluoro-4-(4-phenyl-piperazine-1-carbonyl)-phenyl]-benzenesulfonamide]: the values for the inhibition at 1 µM at hKv1.5 and on human Kv1.3 were 93.8% and 42%, respectively.

On to `COc1cc(N(Cc2ccccc2)S(=O)(=O)c2ccccc2)ccc1C(=O)N1CCN(c2ccccc2)CC1` [Example 54, N-Benzyl-N-[3-methoxy-4-(4-phenyl-piperazine-1-carbonyl)-phenyl]-benzenesulfonamide], for which the values for the inhibition at 1 µM on hKv1.5 and at human Kv1.3 were 89.6% and 92%, respectively.

In the case of `O=C(c1ccc(N(Cc2ccccc2)S(=O)(=O)c2ccccc2)cc1)N1CCc2ccccc2C1` [Example 55, N-Benzyl-N-[4-(3,4-dihydro-1H-isoquinoline-2-carbonyl)-phenyl]-benzenesulfonamide], the inhibition at 1 µM stood at 50.1% on hKv1.5 and 81% on human Kv1.3.

Consider `COc1ccc(C2CCCN(C(=O)c3ccc(N(Cc4ccc(Cl)cc4)S(=O)(=O)c4ccccc4)cc3)C2)cc1` (stereo not drawn) [Example 57, N-(4-Chloro-benzyl)-N-{4-[3-(4-methoxy-phenyl)-piperidine-1-carbonyl]-phenyl}-benzenesulfonamide], for which the inhibition at 1 µM on hKv1.5 came to 45.2%; on human Kv1.3 it was 47%.

Regarding `O=C(c1ccc(N(Cc2ccccc2)S(=O)(=O)c2ccccc2)cc1)N1CCC(O)(Cc2ccccc2)CC1` [Example 59, N-Benzyl-N-[4-(4-benzyl-4-hydroxy-piperidine-1-carbonyl)-phenyl]-benzenesulfonamide], the results for the inhibition at 1 µM at hKv1.5 and at human Kv1.3 were 40.1% and 87%, respectively.

In the case of `Cn1cnc(S(=O)(=O)N(Cc2ccc(Cl)cc2)c2ccc(C(=O)N3CCCC(c4ccccc4)C3)cc2)c1` (stereo not drawn) [Example 61, 1-Methyl-1H-imidazole-4-sulfonic acid (4-chloro-benzyl)-[4-(3-phenyl-piperidine-1-carbonyl)-phenyl]-amide], the inhibition at 1 µM at hKv1.5 is 67.5%; on human Kv1.3, 89%.

On to `Cn1cnc(S(=O)(=O)N(Cc2ccc(Cl)cc2)c2ccc(C(=O)N3CCCC(Oc4ccccc4)C3)cc2)c1` (stereo not drawn) [Example 62, 1-Methyl-1H-imidazole-4-sulfonic acid (4-chloro-benzyl)-[4-(3-phenoxy-piperidine-1-carbonyl)-phenyl]-amide], for which the inhibition at 1 µM on hKv1.5 was 52.4%; at human Kv1.3, 64%.

On to `Cn1cnc(S(=O)(=O)N(Cc2ccccc2)c2ccc(C(=O)N3CCOC(c4ccccc4)C3)cc2)c1` (stereo not drawn) [Example 63, 1-Methyl-1H-imidazole-4-sulfonic acid benzyl-[4-(2-phenyl-morpholine-4-carbonyl)-phenyl]-amide], for which the inhibition at 1 µM at hKv1.5 worked out at 74.4%; at human Kv1.3 it was 93%.

`Cn1cnc(S(=O)(=O)N(Cc2ccc(F)cc2)c2ccc(C(=O)N3CCOC(c4ccccc4)C3)cc2)c1` (stereo not drawn) [Example 66, 1-Methyl-1H-imidazole-4-sulfonic acid (4-fluoro-benzyl)-[4-(2-phenyl-morpholine-4-carbonyl)-phenyl]-amide]: the inhibition at 1 µM at hKv1.5 turned out to be 69%; at human Kv1.3, 55%.

In the case of `Cn1cnc(S(=O)(=O)N(Cc2ccccc2)c2ccc(C(=O)N3CCOC(c4ccccc4)C3)cc2F)c1` (stereo not drawn) [Example 68, 1-Methyl-1H-imidazole-4-sulfonic acid benzyl-[2-fluoro-4-(2-phenyl-morpholine-4-carbonyl)-phenyl]-amide], the figures for the inhibition at 1 µM at hKv1.5 and on human Kv1.3 were 62.8% and 90%, respectively.

As for `Cn1nccc1S(=O)(=O)N(Cc1ccccc1)c1ccc(C(=O)N2CCOC(c3ccccc3)C2)cc1` (stereo not drawn) [Example 85, 2-Methyl-2H-pyrazole-3-sulfonic acid benzyl-[4-(2-phenyl-morpholine-4-carbonyl)-phenyl]-amide], the inhibition at 1 µM at hKv1.5 was 47%; on human Kv1.3, 94%.

As to `O=C(c1ccc(N(Cc2ccc(Cl)cc2)S(=O)(=O)c2cccnc2)cc1)N1CCCCC1` [Example 87, Pyridine-3-sulfonic acid (4-chloro-benzyl)-[4-(piperidine-1-carbonyl)-phenyl]-amide], the results for the inhibition at 1 µM at hKv1.5 and on human Kv1.3 were 56% and 62%, respectively.

Regarding `CN1CCN(C(=O)c2ccc(N(Cc3ccccc3)S(=O)(=O)c3ccn(C)n3)cc2)CC1c1ccccc1` (stereo not drawn) [Example 90, 1-Methyl-1H-pyrazole-3-sulfonic acid benzyl-[4-(4-methyl-3-phenyl-piperazine-1-carbonyl)-phenyl]-amide], the inhibition at 1 µM is 40.8% at hKv1.5 and 76% on human Kv1.3.

Consider `Cn1cnc(S(=O)(=O)N(Cc2cccc(Cl)c2)c2ccc(C(=O)N3CCCCC3)cc2)c1` [Example 93, 1-Methyl-1H-imidazole-4-sulfonic acid (3-chloro-benzyl)-[4-(piperidine-1-carbonyl)-phenyl]-amide], for which the inhibition at 1 µM on hKv1.5 came out at 43.4%; at human Kv1.3, 67%.
